Measured values published in patent US11096946B2, “Use of a PPAR-δ agonist for reducing loss of muscle strength, muscle mass, or type I muscle fibers in an immobilized limb” (vTv Therapeutics LLC, priority 2013, dated 2021).
Values joined by “and” are separate entries in the source; they are usually repeats but may differ in a detail not shown here. Equal values may be shown once. Where a name gives a salt, the structure may show the parent alone.

System: human subjects
Assay: Repeated measures knee extension strength test (Muscle Strength Test) during and after limb immobilization, placebo-controlled study
Type: in vivo
Details: for Muscle strength, knee extension, Baseline Mean: baseline pre-dose; for Muscle strength, knee extension, LSMean change from baseline, Day 14: Day 14 (brace off); for Muscle strength, knee extension, LSMean change from baseline, Day 29: P 0.2 vs placebo; for Mean Difference Compound 1 vs Placebo, LSMean change in muscle strength, Day 29: P 0.2
Text: A protocol for the experimental evaluation of the impact of a PPARδ agonist on muscle atrophy during and following the end of limb immobilization is provided below. In the protocol, reference to Compound 1 refers to (E)-[4-[3-(4-Fluorophenyl)-3-[4-[3-(morpholin-4-yl)propynyl]phenyl]allyloxy]-2-methyl-phenoxy]acetic acid sodium salt.
A randomized, investigator and subject blind, sponsor open, placebo-controlled study evaluating the possible impact of Compound 1 on the recovery of muscle atrophy from limb immobilization is described. Subjects will be leg immobilized using a knee brace (30 degrees flexion on the left leg to allow driving) and will be provided with walking crutches such that there is no weight bearing on the immobilized leg. Subjects will be enrolled and randomized to receive Compound 1 or placebo (both referenced as Study Drug in this protocol). The study consists of five periods termed SCR (screening period, Day −35 to −3), BL (baseline period: Day −1 to Day 1 [am]), IMM (limb immobilization and treatment with study drug, Day 1 [pm] to Day 14), TRE (treatment with study drug without limb immobilization, Day 15 to Day 29) and REC (no treatment recovery period, Day 29 to Day 42). There will be six testing days during the study: Day 1 (baseline), Day 14 (brace off day), Day 16 (48 hours after brace off), Day 21, Day 29 (last dose) and Day 42 (final study visit). On each testing day, subjects will undergo the combination of several testing procedures in sequential order as listed: 1) Morning activity plus approximately 500-step walk (when domiciled at Clinical Research Unit [CRU]); 2) Blood sampling; 3) Standardized breakfast (Study Drug administration will be immediately before the breakfast except for Day 42); 4) Muscle biopsy; 5) Leg muscle strength tests (MST) and modified physical performance test (PPT); and 6) Magnetic resonance imaging (MRI) of the thigh to evaluate thigh muscle volume/cross-section area (CSA).
Two treatment groups in this study: • a) Treatment group A: Treated with 100 mg of Compound 1 twice daily from Day 1 to Day 29. • b) Treatment group B: Treated with placebo twice daily from Day 1 to Day 29.
The maximal amount of weight that the participant is able to lift for one repetition (1-RM) will be measured on a Hoist multi-station weight machine for the following exercises: leg press, knee extension, knee flexion, and bench press. Isokinetic (Cybex) testing of knee extension/flexion will be done to assess deficiencies in rapid strength recruitment. Subjects will be seated on the testing device and strapped in to prevent the pelvis from sliding forward. The movement arm will be adjusted to the subject's leg length and the weight of the leg will be determined. Isokinetic testing of the knee extensors and flexors will be performed at 0°/s, 60°/s and 180°/s. Four to five repetitions at each mode will be performed with the highest two values used for data analysis. Subjects will be familiarized with these procedures during the screening visit.
An experimental study was conducted to evaluate the impact of Compound 1, a PPARδ agonist, on muscle atrophy during and following the end of limb immobilization in human subjects. Except where specifically noted otherwise below, all methods were conducted as described in the protocol above.
Methods were generally conducted as described in the protocol. The study was designed as a double-blind, randomized, placebo-controlled, parallel study in healthy male subjects. A total of N=24 subjects were randomized. The number of randomized subjects is lower than originally planned. A total of N=21 subjects had data available for statistical analysis.
Multiple imputation statistical methods were used to preserve the intent-to-treat (ITT) principle while coping with invalid and missing data.
Primary analysis was executed as defined in the study protocol and the statistical analysis plan (see protocol described above). […]

Cc1cc(OC/C=C(/c2ccc(F)cc2)c2ccc(C#CCN3CCOCC3)cc2)ccc1OCC(=O)O [Compound 1, (E)-[4-[3-(4-Fluorophenyl)-3-[4-[3-(morpholin-4-yl)propynyl]phenyl]allyloxy]-2-methyl-phenoxy]acetic acid sodium salt]
Change in muscle strength compared to baseline, difference to placebo (14 days following the end of immobilization (i.e., day 28)): no longer significantly different
Muscle strength, knee extension, Baseline Mean (Table 1 primary analysis, multiple imputation for missing and invalid data, n = 10, healthy males, raw data in lbs): 195
Muscle strength, knee extension, LSMean change from baseline, Day 14 (Table 1 primary analysis, multiple imputation, 100 mg twice daily, n = 10, P 0.012 vs placebo): −2.9
Mean Difference Compound 1 vs Placebo, LSMean change in muscle strength, Day 14 (Table 1 primary analysis, multiple imputation, P 0.012): 36
Muscle strength, knee extension, LSMean change from baseline, Day 21 (primary) (Table 1 primary analysis, multiple imputation, 100 mg twice daily, n = 10, P 0.004 vs placebo): 36.8
Mean Difference Compound 1 vs Placebo, LSMean change in muscle strength, Day 21 (primary) (Table 1 primary analysis, multiple imputation, P 0.004): 36.5
Muscle strength, knee extension, LSMean change from baseline, Day 29 (Table 1 primary analysis, multiple imputation, 100 mg twice daily, n = 10): 30.4
Mean Difference Compound 1 vs Placebo, LSMean change in muscle strength, Day 29 (Table 1 primary analysis, multiple imputation): 21.9
Mean Difference Compound 1 vs Placebo, Baseline mean muscle strength (Table 1 primary analysis, multiple imputation, P 0.3): 19
Muscle strength, knee extension, Baseline Mean (Table 2 supportive analysis, no imputation, excluding protocol violators, n = 9): 191 lbs
Muscle strength, knee extension, LSMean change from baseline, Day 14 (Table 2 supportive analysis, no imputation, 100 mg twice daily, n = 9, P 0.04 vs placebo): −1.9 lbs
Mean Difference Compound 1 vs Placebo, LSMean change in muscle strength, Day 14 (Table 2 supportive analysis, no imputation, P 0.04): 36.3 lbs
Muscle strength, knee extension, LSMean change from baseline, Day 21 (primary) (Table 2 supportive analysis, no imputation, 100 mg twice daily, n = 9, P 0.048 vs placebo): 31.5 lbs
Mean Difference Compound 1 vs Placebo, LSMean change in muscle strength, Day 21 (primary) (Table 2 supportive analysis, no imputation, P 0.048): 31.3 lbs
Muscle strength, knee extension, LSMean change from baseline, Day 29 (Table 2 supportive analysis, no imputation, 100 mg twice daily, n = 9): 32.5 lbs
Mean Difference Compound 1 vs Placebo, LSMean change in muscle strength, Day 29 (Table 2 supportive analysis, no imputation): 19.4 lbs
Mean Difference Compound 1 vs Placebo, Baseline mean muscle strength (Table 2 supportive analysis, no imputation, P 0.4): 23 lbs
Primary muscle strength variable of analysis vs placebo (human subjects, N=21 with data available): statistically significant superiority over placebo
Rate of loss of muscle strength during immobilization (human subjects, compared to their baseline measurements): reduced to almost zero
Mean change from baseline to day 21 in muscle strength relative to placebo (human subjects, day 21): showed superiority
Muscle atrophy during immobilization (rate of loss of muscle strength relative to placebo) (human subjects, during immobilization): effective in reducing muscle atrophy during immobilization
Atrophy following immobilization (rate of return of muscle strength to baseline relative to placebo) (human subjects, following immobilization): reducing atrophy following immobilization
Maximum muscle strength on the knee extension (KE), raw value, Day 1 (individual Treated subjects A-I, Day 1 baseline, pre-dose, sodium salt): 220.5 Lbs and 145.5 Lbs and 215.5 Lbs and 265.5 Lbs and 123 Lbs and 260.5 Lbs and 168 Lbs and 163 Lbs and 160.5 Lbs
Maximum muscle strength on the knee extension (KE), raw value, Day 14 (individual Treated subjects A-I, Day 14, day brace is removed, 100 mg twice daily, sodium salt): 200.5 Lbs and 195 Lbs and 163 Lbs and 255.5 Lbs and 120.5 Lbs and 225.5 Lbs and 158 Lbs and 185.5 Lbs and 170.5 Lbs
Maximum muscle strength on the knee extension (KE), raw value, Day 21 (individual Treated subjects A-I, Day 21, primary endpoint, 100 mg twice daily, sodium salt): 270.5 Lbs (3×) and 225.5 Lbs and 213 Lbs and 158 Lbs and 183 Lbs and 205.5 Lbs
Maximum muscle strength on the knee extension (KE), raw value, Day 29 (individual Treated subjects A-I, Day 29, final assessment during treatment period, sodium salt): 270.5 Lbs (2×) and 235.5 Lbs and 225.5 Lbs and 213 Lbs and 150.5 Lbs and 183 Lbs and 230.5 Lbs
Maximum muscle strength on the knee extension (KE), raw value, Day 42 (individual Treated subjects A-I, Day 42, safety follow-up after end of treatment, sodium salt): 270.5 Lbs (3×) and 265.5 Lbs and 238 Lbs and 158 Lbs and 183 Lbs and 220.5 Lbs
